According to patent publication EP4703357A1, “TRIAZOLYL-CONTAINING COMPOUNDS” (Chia Tai Tianqing Pharmaceutical Group Co., Ltd., priority 2023, dated 2024):
Read-outs that look alike come from different tables or passages of the source.

Key:
Jurkat cells = experiment: Inhibitory activity on Jurkat cell proliferation (CCK-8); assay type: cell-based; conditions: Homo sapiens, 72 h incubation
Method: (§1) Jurkat cells in a good growth state were collected into a centrifuge tube, adjusted to a cell density of 5 × 10^4 cells/mL, and seeded in a 96-well plate (100 µL/well). The cells were incubated overnight in a cell incubator. Compounds were added using a nanoliter pipettor such that the final concentrations of the compounds were 1000 nM-0.46 nM (the addition was performed in duplicate). Meanwhile, a control was set. After another 72 h of incubation in the cell incubator, the assay reagent CCK-8 (manufacturer: Dojindo Laboratories, Beijing; 10 µL/well) was added. After 2 h of incubation in the cell incubator, absorbance was measured at 450 nm on an Envision microplate reader. A four-parameter analysis was performed, a dose-response curve was fit, and IC50 was calculated.

[1] = In vitro liver microsomal stability, mouse; assay type: in vitro ADME; conditions: mouse liver microsome 0.5 mg/mL, NADPH, 37 °C, 1 h
Method: (§2) Liver microsome incubation samples were prepared by mixing a PBS buffer (pH = 7.4), a liver microsome solution (0.5 mg/mL), a test compound, and an NADPH + MgCl2 solution, and incubated at 37 °C and 300 rpm for 1 h. Zero-hour samples were prepared by mixing a PBS buffer (pH = 7.4), a liver microsome solution (0.5 mg/mL), and a test compound. An acetonitrile solution containing an internal standard was added to the samples, and supernatants were prepared by protein precipitation, diluted, and then assayed by LC/MS/MS. Table 17. In vitro metabolic stability of related compounds in liver microsomes of various species

OCI-LY10 cells = experiment: Inhibitory activity on OCI-LY10 cell proliferation (CCK-8); assay type: cell-based; conditions: Homo sapiens, 72 h incubation
Method: as §1, with “OCI-LY10 cells” for “Jurkat cells”, “of 9” for “of 5”

[2] = In vitro liver microsomal stability, human; assay type: in vitro ADME; conditions: human liver microsome 0.5 mg/mL, NADPH, 37 °C, 1 h
Method: as §2

[3] = tested on: OCI-LY10 human diffuse large B-cell lymphoma NOD-SCID mouse subcutaneous xenograft tumor model; experiment: Efficacy in OCI-LY10 subcutaneous xenograft tumor model; assay type: in vivo, NOD-SCID mice; conditions: for TGI(%): by tumor weight
From the text: Efficacy evaluation in OCI-LY10 human diffuse large B-cell lymphoma NOD-SCID mouse subcutaneous xenograft tumor model • (1) SPF female NOD-SCID mice (source: Jiangsu Huachuang Xinnuo Pharmaceutical Technology Co., Ltd.) were inoculated subcutaneously at the right side armpit with OCI-LY10 human diffuse large B-cell lymphoma cells at 1 × 10^7 cells/mouse. When the mean tumor volume reached about 200 mm^3, the animals were divided into a control group (vehicle control group) and treatment groups (compound groups).
The administration dose included 1 mg/kg, 2 mg/kg, and 4 mg/kg, and the administration frequency was once daily. The day of grouping was defined as day 0, and intragastric administration was started on day 0 for 21 consecutive days.
Alternatively, the administration dose was 4 mg/kg, and the administration frequency was 5 times per week. The day of grouping was defined as day 0, and intragastric administration was started on day 0 five times per week for two consecutive weeks.
The tumor volume was measured once every 3 days, and meanwhile, the mice were weighed and the data were recorded; the general behavior of the mice was observed and recorded every day. After the experiment was completed, the tumors were removed, weighed, and photographed.
The detection index and the calculation formula are as follows: • Tumor volume TV (mm^3) = 1/2 × (a × b^2), wherein a is the long diameter of the tumor, and b is the short diameter of the tumor; • Relative tumor volume RTV = TVt/TV0, wherein TV0 is the tumor volume on day 0, and TVt is the tumor volume at each measurement; • Relative tumor proliferation rate T/C (%) = (TRTV/CRTV) × 100%, wherein TRTV is RTV of the treatment group, and CRTV is RTV of the vehicle control group; • Tumor growth inhibition rate TGI (%) = (1 - TW/TW0) × 100%; wherein TW is the tumor weight of the treatment group, and TW0 is the tumor weight of the vehicle control group; • Weight change rate WCR (%) = (Wtt - Wt0)/Wt0 × 100%, wherein Wt0 is the body weight of the mouse on day 0, and Wtt is the body weight of the mouse at each measurement.

Mouse pharmacokinetics [4] = assay type: in vivo; conditions: ICR, plasma, po, 3 mg/kg, Mice administered intragastrically 3 mpk
Method: ICR mice weighing 18-22 g were randomized into groups of 9 mice per group after 3-5 days of acclimatization and then administered intragastrically at a dose of 3 mg/kg.
Plasma samples to be tested were prepared by taking blood from the orbit at time points of 15 min, 30 min, 1 h, 2 h, 4 h, 6 h, 8 h, 10 h, and 24 h.
20 µL of each plasma sample to be tested and a standard curve sample were taken, and an acetonitrile solution containing an internal standard was added. A supernatant was obtained by protein precipitation, diluted, and then assayed by LC/MS/MS.
Pharmacokinetic parameters were fitted using a non-compartmental model.

Mouse pharmacokinetics [5] = assay type: in vivo, ICR mice; conditions: ICR, plasma
[6] = Table 20, 4mg/kg intragastric, Day 18 of assay
[7] = 1 mg/kg, Mice administered by single intravenous injection 1 mpk
[8] = Table 19, 2mg/kg intragastric, Day 21 of assay
[9] = Table 19, 4mg/kg intragastric, Day 21 of assay

For `NC(=O)/C(=C/n1cnc(-c2cc(C(F)(F)F)nc(C(F)(F)F)c2)n1)c1cnc2ccccc2c1` [11(11-A)], the IC50 (Jurkat cells) was no more than 20 nM, the “Mouse liver microsome Residuals at 60 min (%)” value [1] was 89.63% and the IC50 (OCI-LY10 cells) was no more than 40 nM. The “Human liver microsome Residuals at 60 min (%)” value [2] was 86.18%, the “RTV (mean±SD)” value [3, 6] was 1.7±0.2 and the “T/C(%)” value [3, 6] was 21.8%. For the same compound, the “TV(mm^3) (mean±SD)” value [3, 6] was 326±52 mm^3, the “Weight change rate (%) (mean ± SD)” value ([3]; Table 20, 4mg/kg intragastric, Day 21 of assay) was 0.6±8.1% and the “TGI(%)” value ([3]; Table 20, 4mg/kg intragastric, Day 21 of assay, ** p < 0.01 vs control) was 89.7%**.

In the case of `Cc1ccc(/C(=C\n2cnc(-c3cc(C(F)(F)F)nc(C(F)(F)F)c3)n2)C(N)=O)cn1` [21(21-A)], the Cmax (Mouse pharmacokinetics [4]) is reported as 871 ng/mL, the Tmax (Mouse pharmacokinetics [4]) is reported as 1 h and the half-life (Mouse pharmacokinetics [4]) is reported as 2.35 h. For the same compound, the AUC(0-t) (Mouse pharmacokinetics [4]; read-out: AUC (0-24)) was 4750 ng·h/mL, the “Mouse liver microsome Residuals at 60 min (%)” value [1] was 99.28% and the AUC(0-inf) (Mouse pharmacokinetics [5]; [7]) was 1630 ng·h/mL. The clearance (Mouse pharmacokinetics [5]; [7]) was 10.2 mL/min/kg, the half-life (Mouse pharmacokinetics [5]; [7]) was 3.02 h and the AUC(0-t) (Mouse pharmacokinetics [5]; 1 mg/kg, Mice administered by single intravenous injection 1 mpk, read-out: AUC (0-24)) was 1630 ng·h/mL. For the same compound, the AUC(0-inf) (Mouse pharmacokinetics [5]; po, 3 mg/kg, Mice administered intragastrically 3 mpk) was 4760 ng·h/mL, the “Human liver microsome Residuals at 60 min (%)” value [2] was 94.26% and the “RTV (mean±SD)” value [3, 8] was 2.4±0.4. For the same compound, the “T/C(%)” value [3, 8] was 22.2%, the “TV(mm^3) (mean±SD)” value [3, 8] was 520±178 mm^3 and the “Weight change rate (%) (mean ± SD)” value ([3]; Table 19, 2mg/kg intragastric, Day 23 of assay) was -2.0±6.5%. For the same compound, the “TGI(%)” value ([3]; Table 19, 2mg/kg intragastric, Day 23 of assay, * p < 0.05 vs control) was 89.3%*.

In the case of `NC(=O)/C(=C/n1cnc(-c2cc(C(F)(F)F)nc(C(F)(F)F)c2)n1)c1cnc2cccnc2c1` [25(25-A)], the IC50 (Jurkat cells) is reported as no more than 20 nM, the “Mouse liver microsome Residuals at 60 min (%)” value [1] is reported as 94.66% and the IC50 (OCI-LY10 cells) is reported as no more than 40 nM. The “Human liver microsome Residuals at 60 min (%)” value [2] was 110.48%, the “RTV (mean±SD)” value [3, 9] was 1.8±0.6 and the “T/C(%)” value [3, 9] was 16.7%. The “TV(mm^3) (mean±SD)” value [3, 9] was 360±105 mm^3, the “Weight change rate (%) (mean ± SD)” value ([3]; Table 19, 4mg/kg intragastric, Day 23 of assay) was 1.7±5.3% and the “TGI(%)” value ([3]; Table 19, 4mg/kg intragastric, Day 23 of assay, * p < 0.05 vs control) was 91.1%*.
